Assay results taken from PubChem BioAssay AID2305 (GlaxoSmithKline (GSK), 2010).

The molecules below were run on P. falciparum 3D7 growth, pLDH absorbance (assay: P. falciparum 3D7 growth inhibition, dose response, strain 3D7 (AID 2305)).

Compound	IC50 [nM]
N#Cc1ccc(N(CCOC(=O)c2ccc(Br)s2)Cc2ccccc2C(F)(F)F)cc1C(F)(F)F	1070
COc1ccc2nccc([C@@H](O)CN3CCC(NCc4nc5c(C#N)cccc5[nH]4)CC3)c2c1	1000
Cc1cc(NN=Cc2ccccc2Cl)c2ccc(F)cc2n1	260
Oc1ccc(Cl)cc1Nc1nc(C(F)(F)F)nc2ccccc12	940
COc1cccc(-c2cccc(-c3ccc(NC(=O)c4ccc([N+](=O)[O-])o4)cc3)n2)c1	520
CC(=O)c1c(Nc2c(C)cc(C)cc2C)oc(C)cc1=O	480
NC(=O)c1cccc(Nc2nccc(Nc3ccc4[nH]c(-c5ccccc5)cc4c3)n2)c1	780
Cc1cc(Nc2ccc(Oc3ccc(Cl)cc3)cc2)nc(N)n1	620
CCn1ccc2c(N3CCCCS3(=O)=O)cc(C(=O)N[C@@H](Cc3ccccc3)[C@H](O)CNC(C)(C)c3cccc(C(F)(F)F)c3)cc21	130
N#Cc1cc(C(=O)Nc2ccccc2)c(N)nc1SCC(=O)Nc1ccc(Br)cc1	1100
O=c1[nH]ccc2nc(N[C@@H]3CCNC3)nc(Nc3cccc(S(=O)(=O)N4CCOCC4)c3)c12	1230
Cc1ccccc1C1CCN(C2CCC(NC(=O)/C=C/c3cccc(F)c3)CC2)CC1 (stereo unspecified)	1190
Cc1cc(N[C@@H](Cc2ccccc2)C(=O)NCCOc2ccccc2)nc(NCCc2ccc(F)cc2)n1	600
CCCN(Cc1nnc(-c2cccs2)o1)C(=O)CSc1nnnn1-c1ccc(C)c(C)c1	580
CN1CCC(N2CCN(c3ccc4c(=O)nc(CCc5cccc(F)c5F)n(CC(=O)N(C)Cc5ccc(-c6ccc(C(F)(F)F)cc6)cc5)c4n3)CC2)CC1	720
CCC(C)c1cnc2nc(N)nc(N)c2c1C (stereo unspecified)	440
Cc1[nH]c2ccccc2c(=O)c1Br	840
COc1ccc2nccc([C@@H](O)CN3CCC(NC(=O)c4ccc5nc(-n6cccc6)sc5c4)CC3)c2c1	1000
N#Cc1ccc(NC(=NCc2cccnc2)Nc2ccc(-c3ccccc3)cc2)c(O)c1	810
COc1ccc(CCN2CCC(CN(C)Cc3cnn(-c4ccccc4)c3)CC2)cc1	1160
COC(=O)c1ccc2nc(-c3ccc(C(=O)NC4CCN(Cc5ccccc5)CC4)s3)[nH]c2c1	690
CCc1ccccc1N1CCN(CCCCNC(=O)c2ccc(NC(=O)c3ccc(Cl)cc3)cc2)CC1	960
O=C(Nc1cccc(CN2CCCN(Cc3cccnc3)CC2)c1)c1cc2ccccc2s1	1470
CCOc1cc(CC)ccc1C1CCN(CCN2CCC(NC(=O)c3ccc(-c4ccc(C(C)=O)cc4)cc3)CC2)CC1	230
CCCCCCCc1cc(O)c2c3c(c(=O)oc2c1)CN(C)CC3	140
COCCNc1nc(N2CCC(CNC(=O)c3ccc(-c4ccc(C(=O)N(C)C)cc4C)cc3)CC2)nc2cc(OC)c(OC)cc12	1020

Compound	IC50 [nM]
O=C(Nc1ccnc(N2CCCN(Cc3cccc(O)c3)CC2)c1)c1ccc(F)cc1	1480
Cc1cc(NN=CC=Cc2ccccc2)c2ccccc2n1	760
O=C1COC2(CN1C1CCN(Cc3ccc(O)c(Cl)c3)C1)c1ccccc1-c1ccccc12 (stereo unspecified)	960
COc1ccc(Nc2nc(NN=Cc3ccc(-c4ccc([N+](=O)[O-])cc4)o3)nc(Nc3ccccc3)n2)cc1	760
CC1(C)N=C(N)N=C(N)N1OCCSCCON1C(N)=NC(N)=NC1(C)C	50
NC1=NC(Cc2ccccc2)(c2ccncc2)C(=O)N1CCCc1ccccc1 (stereo unspecified)	940
NC1=NC(Cc2ccccc2)N(c2ccc(Cl)cc2)C(N)=N1 (stereo unspecified)	140
COc1cc2ncnc(Nc3ccc(OCc4ccccc4Br)c(Cl)c3)c2cc1OC	1280
O=C(/C=C/c1ccc(Cl)c(Cl)c1)N1CCC(CN2CCC(c3c[nH]c4cnccc34)CC2)CC1	220
CCCCOP(=O)(OCCCC)C(=Cc1ccc(O)c2ccccc12)P(=O)(OCCCC)OCCCC	1070
O=c1cc(NCCCNC2CCOc3c(I)cc(Cl)cc32)[nH]c2ccccc12 (stereo unspecified)	830
CN(C)c1ccc(CN2CCC(CNC(=O)c3cc(-c4cccc(C(F)(F)F)c4)cs3)C2)cc1 (stereo unspecified)	880
COc1cc(NC(=O)CCCCCCCN2CCN(C)CC2)c2ncccc2c1	610
N#Cc1ccc(C(=O)Nc2ccc(-c3cccc(CN4CCCC4)c3)cc2)cc1	1000
Cc1cccc(Nc2nccc(NCC(O)c3cccc(C(F)(F)F)c3)n2)c1 (stereo unspecified)	510
CCCCCCn1c2c(c(=N)c3c1CCC3)CCCC2	290
N#Cc1ccc(N[C@@H](CC2CCCCC2)C(=O)N[C@@H]2CCCc3ccccc32)c2ccccc12	730
O=C(Nc1cccc2ccccc12)N1CCc2cc3nccc(N4CCN5CCC[C@H]5C4)c3cc21	890
CC(C)CC(=O)N1CCNC[C@@H]1C(=O)NC1CC1	1090
COc1ccc(C=NNc2nc(-c3ccccc3)cc(=O)[nH]2)cc1OC	590
Cc1cccc2[nH]c(-c3cccc(-c4cccc(C(=O)N5CCCCC5CN5CCC(O)C5)c4)c3)nc12 (stereo unspecified)	460
Cc1cccc2[nH]c(-c3ccc(-c4cccc(NC(=O)c5ccncc5)c4)cc3)nc12	840
Cn1c(Cc2ccccc2)nnc1Sc1ccc(C#N)c([N+](=O)[O-])c1	910
OC(CNc1ccnc(Nc2ccc(Cl)cc2)n1)c1ccc(C(F)(F)F)cc1 (stereo unspecified)	770
c1cc(Nc2nccc(-c3cnn4ncccc34)n2)cc(-c2cnco2)c1	690
Cc1cccc2[nH]c(-c3ccc(-c4ccc(NC(=O)C(C)CN(C)C)cc4)s3)nc12 (stereo unspecified)	410

Compound	IC50 [nM]
CCCC(CNCc1ccccc1)CNc1cc(=O)c2ccccc2[nH]1 (stereo unspecified)	1020
Nc1nc2c(ncn2COC2COP(=O)(O)OC2)c(=O)[nH]1 (stereo unspecified)	450
COc1ccc2nccc([C@@H](O)CN3CCC(NC(=O)C(c4ccsc4)N4CCN(c5ccccc5OC)CC4)CC3)c2c1 (stereo partly specified)	830
CCOc1c(CCNCCCCNCCc2ccc3ccccc3c2OCC)ccc2ccccc12	600
c1ccc2c(NCCCCCCCCCNc3ccnc4ccccc34)ccnc2c1	120
CCC1CN2CCc3cc(OC)c(OC)cc3C2CC1CC1NCCc2cc(OC)c(OC)cc21 (stereo unspecified)	140
O=C(Nc1ccccc1F)NC1CCN(c2ccnc(Nc3ccc(F)cc3)n2)C1 (stereo unspecified)	850
CC(C)N1CCC(NC(=O)N2CCCN(c3ncnc4cc(-c5ccccc5)sc34)CC2)CC1	860
O=C(Nc1cccc(C(F)(F)F)c1)c1cccc(S(=O)(=O)NCC2CCN(CC3CCCCC3)CC2)c1	1470
COc1cc2nc(Nc3ccc(C)cc3)nc(Nc3ccc(C)cc3)c2cc1OC	140
CCC(CC)(CCC#N)CN(C[C@@H](O)[C@H](Cc1ccccc1)NC(=O)OC(C)(C)C)S(=O)(=O)c1ccc(OC)cc1	1040
CC(=O)Nc1ccc(CN2CCC(N(C)c3cc(NC(=O)c4cccc(F)c4)ccn3)CC2)cc1	1380
O=C(O[C@H]1CN[C@H](C#Cc2cc3ncnc(Nc4ccc5c(ccn5S(=O)(=O)c5cccs5)c4)c3s2)C1)N1CCOCC1	1100
Cc1nc(-c2nc(N3CCC(C(N)=O)CC3)ncc2-c2ccsc2)sc1C	900
O=C(c1cccc(-c2noc(C(F)(F)F)n2)c1)N1CCN(c2nsc3ccccc23)CC1	140
COc1ccc(CNCCc2cccs2)cc1-c1cccc(S(=O)(=O)NCCN2CCCC2)c1	880
COc1ccc(CNC2CCN(C)CC2)cc1-c1ccc(S(=O)(=O)NC2CCC2)c(F)c1	840
N=c1c2c(n(Cc3ccc(Cl)cc3Cl)c3c1CCC3)CCCC2	350
Cc1cc(NN=Cc2ccc(F)cc2)c2cc(C(F)(F)F)ccc2n1	230
CC(=O)Nc1cccc(C(=O)Nc2cccc(-c3ccc(-c4nc5c(C)cccc5[nH]4)cc3)c2)c1	910
Cc1cc(CNCCCCCCNCc2ccc(Cl)cc2)ccc1O	820
Cc1cc(N2CCN(C(=O)OC(C)(C)C)CC2)ccc1N	870
FC(F)(F)c1ccc2nc(-c3ccc(-c4cccc(CNCCN5CCNCC5)c4)s3)[nH]c2c1	1040
CCOc1ccc2ccccc2c1C(=O)Nc1cc(C)nn1-c1nc(C)cc(=O)[nH]1	1010
c1cncc(Oc2ccc(Nc3ccnc4cc(-c5cccc(CNCCN6CCOCC6)c5)ccc34)cc2)c1	110
O=C(NC1CCC(CCN2Cc3ccc(Br)cc3C2)CC1)c1cccc(-c2cccnc2)c1 (stereo unspecified)	930

Compound	IC50 [nM]
Nc1cc(C(F)(F)F)ccc1Cl	740
Fc1cccc(COc2ccc(-n3ccc4c(NCCCn5ccnc5)ncnc43)cc2Cl)n1	1030
O=C(Cn1c(SCc2cccc(F)c2F)cc(=O)c2ccccc21)N(Cc1ccc(-c2ccc(C(F)(F)F)cc2)cc1)C1CCN(CCO)CC1	1250
CC(C)c1ccc(C2CCN(CCCCNC(=O)c3ccc(NC(=O)c4ccc(C(F)(F)F)cc4)cc3)CC2)c(O)c1	580
O=C(Nc1cccc(N2CCC(NCCCn3ccnc3)CC2)c1)c1cccc(C(F)(F)F)c1	1110
CC(C)CCN1CCCN(Cc2ccc(C(=O)Nc3ccc(Cl)cc3)cc2)CC1	800
Cc1[nH]c2ccccc2c1C1CCN(CCCCNC(=O)c2ccc(-c3ccc(C#N)cc3)cc2)CC1	700
CCc1ccc(CN(Cc2ccc(C)cc2)Cc2ccc(NC(C)=O)cc2)cc1	960
Fc1ccc(-c2csc3ncnc(Cl)c23)cc1	330
O=C(NC1CCN(Cc2ccccc2)CC1)c1ccc(-c2nc3cc(Cl)c(F)cc3[nH]2)s1	310
CC(C)c1nc2c(N)nc(N)nc2nc1N	1310
CCC(CSC1CCCCC1)N(C)CCN(C)C(CC)CSC1CCCCC1 (stereo unspecified)	310
Oc1ccc(CCNc2nc(NCc3ccccc3Oc3ccc(C(F)(F)F)cc3)nc(N3CCNCC3)n2)cc1	1160
CN1CCN(Cc2ccc(-c3ccc4c(Nc5ccc(Oc6ccccn6)cc5)ccnc4c3)o2)CC1	140
Cc1ccc2nc(C)cc(Nc3ccccc3O)c2c1	790
CN1CCCc2ccc(NC(=O)Nc3ccc(Cl)c(Cl)c3)cc2C1	600
COc1ccc(OC)c(CNCC(O)c2cc(C(F)(F)F)cc(C(F)(F)F)c2)c1 (stereo unspecified)	440
O=C(Nc1cccc(-c2ccc(CN3CCC(O)CC3)cc2)c1)c1cccc(Cl)c1	760
N#Cc1cccc(C(=O)Nc2cccc(-c3ccc(C(=O)Nc4cccnc4)cc3)c2)c1	690
CCC(C)CN1CCCN(c2ccc(NC(=O)c3cccs3)cc2)CC1 (stereo unspecified)	800
Cc1cc(NN=Cc2cccc([N+](=O)[O-])c2)c2ccccc2n1	730
O=C(Nc1cc(C(F)(F)F)cc(C(F)(F)F)c1)Nc1ccc(Cl)c(Cl)c1	240
CN1CCN(c2ccc(-c3cccc(NC(=O)c4cccc(Cl)c4)c3)nn2)CC1	580
